What follows are compounds tested on TNF-α production by BV2 cells or PBMC (assay: Cellular assay to measure TNF-α inhibition (LPS-stimulated, ELISA)). Details: BV2 cells or PBMC (not specified), LPS 100 ng/ml over 24 hours, relative to DMSO vehicle; compound concentration not stated.
Format: cell-based, murine (BV2) or human (PBMC)
Source text: Oxidative metabolism exerts an anti-inflammatory effect on myeloid cell phenotype (O'Neill L A, Front Immunol. 2014) and Ppargc1a can promote this energy metabolic pathway (Spiegelman BM, Novartis Found Symp. 2007). Thus, pharmacological activation of Ppargc1a would be expected to inhibit the inflammatory response of myeloid cells. This phenomenon can be measured in cultures by a TNF-α inhibition assay.
Cellular Assay Protocol to Measure TNF-α Inhibition
The murine myeloid cell line BV2 or human peripheral blood mononuclear cells (PBMC) are cultured in RPMI 1640 media (Cat #11875119, Gibco) supplemented with 10% fetal bovine serum and 1% L-glutamine 1% penicillin. These cells are then stimulated with 100 ng/ml of lipopolysaccharide (LPS, O111:B34, Cat # L2630, Sigma) over 24 hours. LPS stimulation results in the secretion of the inflammatory cytokine TNF-α by BV2 cells or PBMC, which can be quantified by ELISA in culture supernatant samples per manufacturer's protocol (Cat #558273 for BV2 and Cat #558299 for PBMC, BD Biosciences). To determine whether exampl compounds 1-78 inhibit TNF-α production by BV2 cells or PBMC, the cells were cultured in the presence of the compounds at different concentrations, and fold reduction in TNF-α production relative to TNF-α production by the same cells cultured in the presence of dimethylsulfoxide (as vehicle control) was determined.

| SMILES | TNF α Inhibition |
| --- | --- |
| CC(C)(C)c1ccc(-c2nc3ccccc3s2)cc1 [Example 3, 2-(4-tert-Butylphenyl)-1,3-benzothiazole] | C (C = <50% inh.) |
| CC(C)(C)c1ccc(-c2nc3ccccc3o2)cc1 [Example 4, 2-(4-tert-Butylphenyl)-1,3-benzoxazole] | B (B = 50-80% inh.) |
| Cn1c(-c2ccc(C(C)(C)C)cc2)nc2ccccc21 [Example 6, 2-(4-tert-Butylphenyl)-1-methyl-benzo[d]imidazole] | B (B = 50-80% inh.) |
| Clc1ccccc1-c1nc2ccccc2[nH]1 [Example 7, 2-(2-Chlorophenyl)-1H-benzo[d]imidazole] | C (C = <50% inh.) |
| Clc1ccc(-c2nc3ccccc3[nH]2)cc1 [Example 8, 2-(4-Chlorophenyl)-1H-benzo[d]imidazole] | C (C = <50% inh.) |
| Cc1cccc(-c2nc3ccccc3[nH]2)c1 [Example 9, 2-(3-Methylphenyl)-1H-benzo[d]imidazole] | C (C = <50% inh.) |
| CC(C)(C)c1ccc(-c2nc3ccccc3[nH]2)cn1 [Example 10, 2-(6-tert-Butyl-3-pyridyl)-1H-benzo[d]imidazole] | A (A = >80% inh.) |
| Cc1ccc(-c2nc3ccccc3[nH]2)cc1 [Example 11, 2-(4-Methylphenyl)-1H-benzo[d]imidazole] | A (A = >80% inh.) |
| Cc1ccccc1-c1nc2ccccc2[nH]1 [Example 12, 2-(2-Methylphenyl)-1H-benzo[d]imidazole] | C (C = <50% inh.) |
| CC(C)(C)c1ccc(-c2nc3cnccc3[nH]2)cn1 [Example 13, 2-(6-tert-Butyl-3-pyridyl)-1H-imidazo[4,5-c]-pyridine] | B (B = 50-80% inh.) |
| c1ccc(-c2nc3ccccc3[nH]2)cc1 [Example 14, 2-(Phenyl)-1H-benzo[d]imidazole] | C (C = <50% inh.) |
| FC(F)(F)c1ccc(-c2nc3ccccc3[nH]2)cc1 [Example 15, 2-(4-Trifluoro-methylphenyl)-1H-benzo[d]imidazole] | C (C = <50% inh.) |
| Oc1ccccc1-c1nc2ccccc2[nH]1 [Example 16, 2-(2-Hydroxy-phenyl)-1H-benzo[d]imidazole] | C (C = <50% inh.) |
| Fc1ccccc1-c1nc2ccccc2[nH]1 [Example 17, 2-(2-Fluorophenyl)-1H-benzo[d]imidazole] | C (C = <50% inh.) |
| N#Cc1ccc(-c2nc3ccccc3[nH]2)cc1 [Example 18, 2-(4-Cyanophenyl)-1H-benzo[d]imidazole] | C (C = <50% inh.) |
| Brc1cccc(-c2nc3ccccc3[nH]2)c1 [Example 19, 2-(3-Bromophenyl)-1H-benzo[d]imidazole] | C (C = <50% inh.) |
| COc1cccc(-c2nc3ccccc3[nH]2)c1 [Example 20, 2-(3-Methoxy-phenyl)-1H-benzo[d]imidazole] | C (C = <50% inh.) |
| FC(F)(F)c1ccccc1-c1nc2ccccc2[nH]1 [Example 22, 2-(2-Trifluoro-methylphenyl)-1H-benzo[d]imidazole] | C (C = <50% inh.) |
| Brc1ccccc1-c1nc2ccccc2[nH]1 [Example 23, 2-(2-Bromophenyl)-1H-benzo[d]imidazole] | B (B = 50-80% inh.) |
| Oc1ccc(-c2nc3ccccc3[nH]2)cc1 [Example 24, 2-(4-Hydroxy-phenyl)-1H-benzo[d]imidazole] | A (A = >80% inh.) |
| COc1ccccc1-c1nc2ccccc2[nH]1 [Example 25, 2-(2-Methoxy-phenyl)-1H-benzo[d]imidazole] | C (C = <50% inh.) |
| Brc1ccc(-c2nc3ccccc3[nH]2)cc1 [Example 26, 2-(4-Bromophenyl)-1H-benzo[d]imidazole] | C (C = <50% inh.) |
| Clc1cccc(-c2nc3ccccc3[nH]2)c1 [Example 27, 2-(3-Chlorophenyl)-1H-benzo[d]imidazole] | C (C = <50% inh.) |
| CCc1ccc(-c2nc3ccccc3[nH]2)cc1 [Example 28, 2-(4-Ethylphenyl)-1H-benzo[d]imidazole] | C (C = <50% inh.) |
| COc1ccc2[nH]c(-c3ccc(C(C)(C)C)cc3)nc2c1 [Example 29, 2-(4-tert-Butylphenyl)-5-methoxy-1H-benzo[d]imidazole] | A (A = >80% inh.) |

| SMILES | TNF α Inhibition |
| --- | --- |
| N#Cc1cccc(-c2nc3ccccc3[nH]2)c1 [Example 30, 2-(3-Cyanophenyl)-1H-benzo[d]imidazole] | C (C = <50% inh.) |
| CC(C)(C)c1ccc(-c2nc3cc(C#N)ccc3[nH]2)cc1 [Example 31, 2-(4-tert-Butylphenyl)-1H-benzo[d]imidazole-5-carbonitrile] | A (A = >80% inh.) |
| CC(C)(C)c1ccc(-c2nc3cc(O)ccc3[nH]2)cc1 [Example 32, 2-(4-tert-Butylphenyl)-1H-benzo[d]imidazol-5-ol] | A (A = >80% inh.) |
| CC(C)c1ccc(-c2nc3ccccc3[nH]2)cc1 [Example 33, 2-(4-Isopropylphenyl)-1H-benzo[d]imidazole] | C (C = <50% inh.) |
| Fc1ccc(-c2nc3ccccc3[nH]2)cc1 [Example 34, 2-(4-Fluorophenyl)-1H-benzo[d]imidazole] | C (C = <50% inh.) |
| CC(C)(C)c1ccc(-c2nc3ncccc3[nH]2)cc1 [Example 35, 2-(4-tert-Butylphenyl)-1H-imidazo[4,5-b]pyridine] | C (C = <50% inh.) |
| Fc1cccc(-c2nc3ccccc3[nH]2)c1 [Example 36, 2-(3-Fluorophenyl)-1H-benzo[d]imidazole] | C (C = <50% inh.) |
| CC(C)(C)c1ccc(-c2nc3cc(Cl)ccc3[nH]2)cc1 [Example 37, 2-(4-tert-Butylphenyl)-5-chloro-1H-benzo[d]imidazole] | A (A = >80% inh.) |
| Cc1ccc2[nH]c(-c3ccc(C(C)(C)C)cc3)nc2c1 [Example 38, 2-(4-tert-Butylphenyl)-5-methyl-1H-benzo[d]imidazole] | A (A = >80% inh.) |
| FC(F)(F)c1cccc(-c2nc3ccccc3[nH]2)c1 [Example 39, 2-(3-Trifluoromethylphenyl)-1H-benzo[d]imidazole] | B (B = 50-80% inh.) |
| Oc1cccc(-c2nc3ccccc3[nH]2)c1 [Example 40, 2-(3-Hydroxyphenyl)-1H-benzo[d]imidazole] | C (C = <50% inh.) |
| CC(C)(C)c1ccc(-c2nc3cc(F)ccc3[nH]2)cc1 [Example 41, 2-(4-tert-Butylphenyl)-5-fluoro-1H-benzo[d]imidazole] | C (C = <50% inh.) |
| CC(C)(C)c1ccc(-c2nc3cc(Br)ccc3[nH]2)cc1 [Example 43, 2-(4-tert-Butylphenyl)-5-bromo-1H-benzo[d]imidazole] | A (A = >80% inh.) |
| Cc1cccc2[nH]c(-c3ccc(C(C)(C)C)cc3)nc12 [Example 45, 2-(4-tert-Butylphenyl)-4-methyl-1H-benzo[d]imidazole] | A (A = >80% inh.) |
| CC(C)(C)c1ccc(-c2nc3c(Cl)cccc3[nH]2)cc1 [Example 46, 2-(4-tert-Butylphenyl)-4-chloro-1H-benzo[d]imidazole] | A (A = >80% inh.) |
| Nc1cccc(-c2nc3ccccc3[nH]2)c1 [Example 47, 2-(3-Aminophenyl)-1H-benzo[d]imidazole] | C (C = <50% inh.) |
| Nc1ccccc1-c1nc2ccccc2[nH]1 [Example 48, 2-(2-Aminophenyl)-1H-benzo[d]imidazole] | C (C = <50% inh.) |
| CC(C)(C)c1ccc(-c2nc3c(F)cccc3[nH]2)cc1 [Example 49, 2-(4-tert-Butylphenyl)-4-fluoro-1H-benzo[d]imidazole] | A (A = >80% inh.) |
| CC(C)(C)c1ccc(-c2nc3c(O)cccc3[nH]2)cc1 [Example 50, 2-(4-tert-Butylphenyl)-1H-benzo[d]imidazol-4-ol] | A (A = >80% inh.) |
| COc1cccc2[nH]c(-c3ccc(C(C)(C)C)cc3)nc12 [Example 51, 2-(4-tert-Butylphenyl)-4-methoxy-1H-benzo[d]imidazole] | A (A = >80% inh.) |
| CC(C)(C)c1ccc(-c2nc3cc(F)c(F)cc3[nH]2)cc1 [Example 52, 2-(4-tert-Butylphenyl)-5,6-difluoro-1H-benzo[d]imidazole] | C (C = <50% inh.) |
| CC(C)(C)c1cc(-c2nc3ccccc3[nH]2)cc(C(C)(C)C)c1 [Example 53, 2-(3,5-di-tert-Butylphenyl)-1H-benzo[d]imidazole] | C (C = <50% inh.) |
| CC(C)(C)c1ccc(-c2nc3c(Br)cccc3[nH]2)cc1 [Example 54, 2-(4-tert-Butylphenyl)-4-bromo-1H-benzo[d]imidazole] | A (A = >80% inh.) |
| FC(F)(F)C1(c2ccc(-c3nc4ccccc4[nH]3)cc2)CC1 [Example 59, 2-[4-[1-(Trifluoromethyl)-cyclopropyl]phenyl]-1H-benzo[d]imidazole] | C (C = <50% inh.) |
| CC(C)(C)c1ccc(-c2nc3c(N)cccc3[nH]2)cc1 [Example 62, 2-(4-tert-Butylphenyl)-1H-benzo[d]imidazol-4-amine] | A (A = >80% inh.) |

— patent publication US11111217B2, “2-arylbenzimidazoles as Ppargc1a activators for treating neurodegenerative diseases” (The Board of Trustees of the Leland Stanford Junior …, priority 2018, dated 2021)
